Data from patent publication US20220381657A1, “METHOD FOR PREPARING BIOLOGICAL MATERIAL HAVING EXCELLENT LIGHT-TRANSMITTING PROPERTY” (RIKEN, priority 2016, published 2022).
Where a name gives a salt, the structure may show the parent alone. Read-outs that look alike come from different tables or passages of the source.

What was measured:
[1] = for 400 nm: OD at 400 nm of the chemical
bovine coagulated blood = assay: Decoloring screening: heme eluted from bovine coagulated blood (OD420-OD700); details: decolorization; for 700 nm calibrated 420 nm Average: OD420 calibrated by OD700; for integrated value 500-700 nm Average: integrated absorbance 500-700 nm
Procedure: A high-throughput screening system for evaluating the decoloring ability of various compounds was constructed. The screening system involved adding an aqueous solution of each compound to bovine coagulated blood and then measuring the absorbance of heme collected in the supernatant.
Specifically, to bovine blood, an equal amount of 8% PFA solution was added, and reacted at 4° C. overnight. The mixed liquid was centrifuged at 1500×g for 5 minutes, and the supernatant containing PFA was discarded. Then, the same amount of PBS as the original volume of blood was added to prepare a coagulated blood sample. To 150 μL of 10 wt % aqueous solution of each compound, 50 μL of the coagulated blood sample was added, and reacted at 37° C. overnight. The reaction solution was centrifuged at 1500×g for 5 minutes, and then 100 μL of the supernatant was added to a plate so as to be subjected to absorbance measurement. A sample which is suspended in water instead of being dissolved in the water has a weak decoloring effect, but none the less has a high absorbance value. […]

Q: For `CCCCCCCCCCCC[N+](C)(C)CCCS(=O)(=O)[O-]` [#0694], which 400 nm [1] is on record?
A: 0.055

Q: What about the pH ([…]) of the same compound?
A: 8.4

Q: What about the “700 nm calibrated 420 nm Average” value (bovine coagulated blood) of the same compound?
A: 2.24

Q: What about the “integrated value 500-700 nm Average” value (bovine coagulated blood) of the same compound?
A: 2.53

Q: And the “Fluorescence quench Average” value (Serius; relative fluorescence)?
A: 1.09

Q: With `CN(C)CCC(=O)O.Cl` [#0702, 3-(Dimethylamino) propionic acid hydrochloride] as the compound, how does the pH (Table 4) read?
A: 2.17

Q: Which pH (Table 4) does the source give for `N[C@@H](CS(=O)(=O)O)C(=O)O` [#0745, L-cysteic acid] here?
A: 2.11

Q: With `O=C(O)[C@@H](O)c1ccccc1Cl` [#0746, 2-Chloro-L-mandelic acid] as the compound, how does the pH (Table 4) read?
A: 2.14

Q: For `O=C(O)C(C(=O)O)C1CCCC1` [#0762, Cyclopentyl malonic acid], which pH (Table 4) is on record?
A: 2.74

Q: With `CCCCCCCCC(=O)[O-].[Na+]` [#0865, Sodium nonanoate] as the compound, how does the OD400 ([1]; Table 1) read?
A: 0.051

Q: And the pH (Table 1)?
A: 8.9

Q: Which pH (Table 4) does the source give for `CN1CCN(Cc2ccc(C(=O)O)cc2)CC1` [#0916, 4-[(4-Methyl-1-piperazinyl)methyl]benzoic acid dihydrochloride] here?
A: 2.80

Q: Which pH (Table 4) does the source give for `O=C(O)CCNCCNCCC(=O)O` [#0936, Ethylenediamine-N,N′- dipropionic acid dihydrochloride] here?
A: 2.22

Q: For `O=CNCC(=O)O` [#0942, N-Formylglycine], which pH (Table 4) is on record?
A: 2.67

Q: For `NC[C@H](O)[C@@H](O)[C@H](O)[C@H](O)CO` [#0956, D-Glucamine, reference compound], which OD400 ([1]; Table 3) is on record?
A: 0.260

Q: What about the pH (Table 3) of the same compound?
A: 12.3

Q: Which pH (Table 4) does the source give for `O=C1O[C@H](CO)[C@@H](O)[C@H](O)[C@H]1O` [#0963, D-(+)-Glucono-1,5-lactone] here?
A: 2.69

Q: Which pH (Table 4) does the source give for `O=C(O)[C@H](O)[C@@H](O)[C@H](O[C@@H]1O[C@H](CO)[C@H](O)[C@H](O)[C@H]1O)[C@H](O)CO` [#1010, Lactobionic acid] here?
A: 2.63

Q: For `OCCN1CC1` [#1061], which “700 nm calibrated 420 nm Average” value (bovine coagulated blood) is on record?
A: 1.14

Q: What about the “integrated value 500-700 nm Average” value (bovine coagulated blood) of the same compound?
A: 0.91

Q: And the “Fluorescence quench Average” value (Serius)?
A: 0.80

Q: For `O=C(O)CC(CC(=O)O)C(=O)O` [#1094, 1,2,3-Propanetri-carboxylic acid], which pH (Table 4) is on record?
A: 2.69

Q: With `O=C(O)/C=C/c1ccc(Cn2ccnc2)cc1` [#1108, Ozagrel hydrochloride hydrate] as the compound, how does the pH (Table 4) read?
A: 4.92

Q: For `CCCCCCC(O)CO` (centres unmarked) [#1109, 1,2-Octanediol], which pH (Table 4) is on record?
A: 6.00

Q: For `O=S(=O)(O)c1cccnc1` [#1165, Pyridine-3-sulfonic acid], which pH (Table 4) is on record?
A: 2.21

Q: Which “700 nm calibrated 420 nm Average” value (bovine coagulated blood) does the source give for `CCCCCCCCCCCCCCCC[N+](C)(C)C.[Cl-]` [#1235, Hexadecyltrimethyl- ammonium chloride] here?
A: 2.85

Q: What about the “integrated value 500-700 nm Average” value (bovine coagulated blood) of the same compound?
A: 2.71

Q: And the “Fluorescence quench Average” value (Serius)?
A: 1.06

Q: Which pH (Table 4) does the source give for `Cl.N=C(N)Nc1ccc(C(=O)O)cc1` [#1249, 4-Guanidino benzoic acid hydrochloride] here?
A: 4.22

Q: With `O=C(O)CC(S)C(=O)O` (centres unmarked) [#1302, Thiomalic acid] as the compound, how does the pH (Table 4) read?
A: 2.68

Q: For `OCCCCCl` [#1365, 4-Chloro-1-butanol (contains tetrahydrofuran)], which pH (Table 4) is on record?
A: 3.08

Q: For `OCCCCBr` [#1366, 4-Bromo-1-butanol (contains tetrahydrofuran)], which pH (Table 4) is on record?
A: 2.31

Q: What does the source list for `CCCCCCCCCCCC(=O)N(C)CC(=O)[O-].[Na+]` [#1466, Sodium N- lauroylsarcosinate]?
A: OD400 ([1]; Table 1): 0.05; pH (Table 1): 6.1

Q: For `CC[n+]1ccccc1Br` [#1562, 2-Bromo-1-ethylpyridinium tetrafluoroborate], which pH (Table 4) is on record?
A: 3.92

Q: With `N#CCC(=O)O` [#1569, Cyanoacetic acid] as the compound, how does the pH (Table 4) read?
A: 2.61

Q: For `CCN(CC)CCO` [#1575, 2-Diethylamino-ethanol], which “700 nm calibrated 420 nm Average” value (bovine coagulated blood) is on record?
A: 2.41

Q: What about the “integrated value 500-700 nm Average” value (bovine coagulated blood) of the same compound?
A: 1.21

Q: And the “Fluorescence quench Average” value (Serius)?
A: 0.61

Q: For `F[N+]12CC[N+](CCl)(CC1)CC2` [#1608, N-Fluoro-N′-(chloromethyl) triethylenediamine bis (tetrafluoroborate)], which pH (Table 4) is on record?
A: 5.19

Q: With `CC(=O)N(CC(O)CO)c1c(I)c(C(=O)NCC(O)CO)c(I)c(C(=O)NCC(O)CO)c1I` (centres unmarked) [Histodenz ™, reference compound] as the compound, how does the OD400 ([1]; Table 3) read?
A: 0.054

Q: What about the pH (Table 3) of the same compound?
A: 7.3

Q: With “Dodecyldimethyl(3- sulfopropyl)ammonium [#0661]” as the compound, how does the 400 nm [1] read?
A: 0.051

Q: What about the OD400 ([1]; Table 1) of the same compound?
A: 0.051

Q: And the “700 nm calibrated 420 nm Average” value (bovine coagulated blood)?
A: 2.10

Q: What about the “integrated value 500-700 nm Average” value (bovine coagulated blood) of the same compound?
A: 1.70

Q: What about the “Fluorescence quench Average” value (Serius; relative fluorescence) of the same compound?
A: 1.13
